Like-named read-outs stand apart in the source and are kept apart here.
Columns and labels:
[1] = HLM stability determination; assay type: in vitro ADME, human; conditions: HLM 500 μg/ml, 1 μM compound, NADPH, relative to 0 min
Protocol: HLM stability determinations shown in Table 3 were obtained as follows. Microsomal incubates contained HLM (500 μg/ml), test compounds (1 μM) and NADPH (1.3 mM) in a 1 ml total volume of microsomal incubation buffer (0.12 M potassium phosphate buffer containing 5 mM magnesium chloride). Reaction was started by adding NADPH to the incubates and was carried out at 37° C. in a shaking water bath for 60 min. At 0, 15, 30, 45, 60 min, a 50 μl aliquot of incubates was taken out and reaction was stopped by adding aliquot into 200 μl ice-cold acetonitrile. After centrifugation at 14000×g for 5 min, 200 μl supernatant was taken out for UPLC-MS/MS analysis as described above. Values at 0 min were used as corresponding control for test compounds. Varapamil, metoprolol, and warfarin, categorized as fast, moderate and slow metabolism, were used as positive control. Incubates without NADPH group served as negative control.

[2] = system: 20-HETE formation (CYP4) in HLM; assay: IC50 determination, 20-HETE formation in HLM; assay type: biochemical, human; conditions: HLM 300 μg/ml, AA 100 μM, 12 concentrations
Protocol: Microsomal incubations contained HLM, RLM (300 μg/ml), AA (100 μM), NADPH (1 mM) and test compounds at 12 concentrations (0.1 nM-50 μM) in a 1 ml total volume in microsomal incubation buffer (0.12 M potassium phosphate buffer containing 5 mM magnesium chloride). Reaction was started by adding NADPH to the incubates and was carried out at 37° C. in a shaking water bath for 20 min. Reaction was stopped by placing tubes on ice, followed by adding 12.5 μl 20-HETE-d6 as internal standard to each sample. Microsomal incubations were extracted with 3 ml ethyl ether twice, dried down under nitrogen gas and reconstituted in 125 μl 80:20 methanol:deionized H2O for analysis. 20-HETE formation was quantified using the validated UPLC-MS/MS assay described above and normalized by vehicle group. HET0016 (250 nM) was used as positive control. Incubates without NADPH group served as the negative control. IC50 was determined by fitting the dose-response curve using Graphpad Prism nonlinear regression.

[3] = system: 20-HETE formation (CYP4) in RLM; assay: Inhibition of 20-HETE formation at 250 or 500 nM in RLM microsomal incubations; assay type: biochemical, rat; conditions: 500 nM compound; RLM 300 μg/ml
Procedure, shortened: (§1)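 Liver or kidney microsomes (300 μg/ml) or rCYP4F2 (25 pmol/mL) were incubated with 100 μM arachidonic acid, 1 mM NADPH and compound at 250 or 500 nM in 0.12 M potassium phosphate/5 mM MgCl2 for 20 min at 37 °C. 20-HETE was measured by UPLC-MS/MS against 20-HETE-d6 and expressed as % of vehicle (n=3).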

[4] = target: T1, rCYP4F2 (Homo sapiens, UniProt P78329); assay: Inhibition of 20-HETE formation at 250 or 500 nM in rCYP4F2 incubations; assay type: biochemical; conditions: 500 nM compound; rCYP4F2 25 pmol/mL; read-out: rCYP4F2 % inh. @ 500 nM
T1 sequence (P78329 5-520): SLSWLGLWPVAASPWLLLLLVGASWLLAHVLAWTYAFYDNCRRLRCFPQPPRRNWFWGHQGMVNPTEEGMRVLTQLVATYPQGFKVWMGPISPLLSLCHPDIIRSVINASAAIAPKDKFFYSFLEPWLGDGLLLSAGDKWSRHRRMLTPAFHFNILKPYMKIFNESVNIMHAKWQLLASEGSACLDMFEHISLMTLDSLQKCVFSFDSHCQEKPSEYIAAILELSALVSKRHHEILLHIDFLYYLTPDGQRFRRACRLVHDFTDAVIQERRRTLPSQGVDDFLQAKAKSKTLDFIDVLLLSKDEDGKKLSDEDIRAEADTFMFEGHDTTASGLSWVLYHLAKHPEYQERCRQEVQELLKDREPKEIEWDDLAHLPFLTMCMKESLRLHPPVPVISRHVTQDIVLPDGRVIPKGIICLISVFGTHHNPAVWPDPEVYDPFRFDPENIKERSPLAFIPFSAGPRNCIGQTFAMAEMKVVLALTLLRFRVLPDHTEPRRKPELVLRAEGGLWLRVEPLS
Procedure, shortened: as §1

[5] = Turbidometric solubility determination; assay type: physicochemical; conditions: PBS with 1% DMSO, aqueous buffer, kinetic from dmso stock, room temperature
Procedure, shortened: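 Kinetic turbidimetric solubility: DMSO stocks diluted 1:100 into PBS in triplicate to give 0–600 μM in 1% DMSO. Shaken 2 h at room temperature, then OD620 read. Solubility limit taken as the concentration giving a statistically significant absorbance rise above background.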

[6] = system: 20-HETE formation (CYP4) in HLM; assay: Inhibition of 20-HETE formation at 250 or 500 nM in HLM microsomal incubations; assay type: biochemical, human; conditions: 500 nM compound; HLM 300 μg/ml, AA 100 μM, 20 min
Procedure, shortened: as §1

[7] = system: MDR1 (P-gp); assay: BBB penetration potential, MDR1-MDCK permeability; assay type: in vitro ADME; conditions: dog; for Papp A→B at 120 min, 5 μM: apical to basolateral, pH 7.4, read-out: BBB penetration potential MDCK A-B 10−6 cm/s; for Papp B→A at 120 min, 5 μM: basolateral to apical, pH 7.4, read-out: BBB penetration potential MDCK B-A 10−6 cm/s
Protocol: BBB penetration potential assessment data in Table 1 was obtained as follows. MDR1-MDCK cell monolayers were grown to confluence on collagen-coated, microporous membranes in 12-well assay plates. Atenolol, propranolol and digoxin were used as control to assess plate quality. The permeability assay buffer was Hanks' balanced salt solution containing 10 mM HEPES and 15 mM glucose at a pH of 7.4. The buffer in the receiver chamber also contained 1% bovine serum albumin. The dosing solution concentration was 5 μM of test article in the assay buffer. Cell monolayers were dosed on the apical side (A-to-B) or basolateral side (B-to-A) and incubated at 37° C. with 5% CO2 in a humidified incubator. Samples were taken from the donor and receiver chambers at 120 minutes. Each determination was performed in duplicate the flux of lucifer yellow was also measured post-experimentally for each monolayer to ensure no damage was inflicted to the cell monolayers during the flux period. All samples were assayed by LC-MS/MS using electrospray ionization using a PE SCIEX API 4000 spectrometer and total run time of 1 min. Analytical method/conditions were: Liquid Chromatography Column: Waters ACQUITY UPLC BEH Phenyl 30×2.1 mm, 1.7 m; M.P. Buffer: 25 mM ammonium formate buffer, pH 3.5; Aqueous Reservoir (A): 90% water, 10% buffer; Organic Reservoir (B): 90% acetonitrile, 10% buffer; Flow Rate: 0.7 mL/minute; gradient program: 99% A (t=0 min), 1% A (t=0.65 min), 1% A (t=0.75 min), 99% A (t=0.8 min), 99% A (t=1 min); 5 μL injection volume
The apparent permeability (Papp) and percent recovery were calculated as follows: Papp=(dCr/dt)×Vr/(A×CA) (1) Percent Recovery=100×((Vr×Cr^final)+(Vd×Cd^final))/(Vd×CN) (2)
wherein: • dCr/dt is the slope of the cumulative concentration in the receiver compartment versus time in μMs^−1; • Vr is the volume of the receiver compartment in cm^3; • Vd is the volume of the donor compartment in cm^3; • A is the area of the insert (1.13 cm^2 for 12-well); • CA is the average of the nominal dosing concentration and the measured 120 minute donor concentration in μM; • CN is the nominal concentration of the dosing solution in μM; • Cr^final is the cumulative receiver concentration in μM at the end of the incubation period; • Cd^final is the concentration of the donor in μM at the end of the incubation period. Efflux ratio (ER) is defined as Papp (B-to-A)/Papp (A-to-B) Interpretation Brain Penetration Potential Classification: • Papp (A-to-B)≥3.0 and ER<3.0: High • Papp (A-to-B)≥3.0 and 10>ER≥3.0: Moderate • Papp (A-to-B)≥3.0 and ER≥10, or Papp (A-to-B)<3.0 Low

| Stability HLM % @ 30 min [1] [%] | IC50 [2] [µM] | RLM % inh. @ 500 nM [3] [%] | inhibition at 0.5 µM [4] [%] | solubility at 2 h ([5]; OD620, read-out: Max Solub) [µM] | solubility at 2 h ([5]; read-out: Solubility_ug/mL) [µg/mL] | HLM % inh. @ 500 nM [6] [%] | Papp A→B at 120 min, 5 μM [7] [×10⁻⁶ cm/s] | Papp B→A at 120 min, 5 μM [7] [×10⁻⁶ cm/s] | SMILES |
| --- | --- | --- | --- | --- | --- | --- | --- | --- | --- |
| 100 | 0.08 | 13.40 | 74.8 | 244 | 78 | 84.10 |  |  | CCS(=O)(=O)c1ccc(C2CCN(c3cn[nH]c3)CC2)cc1 [Compound 52, 4-(4-(Ethylsulfonyl)phenyl)-1-(1H-pyrazol-4-yl)piperidine] |
|  |  | 27.70 | 57.9 | 304 |  | 85.6 | 22.3 | 44.4 | CC(=O)N(C)c1ccc(C2CCN(c3cn[nH]c3)CC2)c(F)c1 [Compound 69, N-(4-(1-(1H-Pyrazol-4-yl)piperidin-4-yl)-3-fluorophenyl)-N-methylacetamide] |
|  |  | 62.70 | 86 | > 600 |  | 90.30 | 10.8 | 77.5 | O=C1CCCN1Cc1ccc(C2CCN(c3cn[nH]c3)CC2)cc1F [Compound 109, 1-(4-(1-(1H-Pyrazol-4-yl)piperidin-4-yl)-2-fluorobenzyl)pyrrolidin-2-one] |
|  |  | 49.00 | 72 | 19.5 |  | 88 | 46.4 | 34.8 | COc1ccc(C2CCN(c3cn[nH]c3)CC2)cc1Cl [Compound 64, 4-(3-Chloro-4-methoxyphenyl)-1-(1H-pyrazol-4-yl)piperidine] |

The remaining lines, values behind:

| SMILES | Stability HLM % @ 30 min [1] [%] | IC50 [2] [µM] | RLM % inh. @ 500 nM [3] [%] | inhibition at 0.5 µM [4] [%] | solubility at 2 h ([5]; OD620, read-out: Max Solub) [µM] | solubility at 2 h ([5]; read-out: Solubility_ug/mL) [µg/mL] | HLM % inh. @ 500 nM [6] [%] | Papp A→B at 120 min, 5 μM [7] [×10⁻⁶ cm/s] | Papp B→A at 120 min, 5 μM [7] [×10⁻⁶ cm/s] |
| --- | --- | --- | --- | --- | --- | --- | --- | --- | --- |
| c1ccc(OC2CCN(c3cn[nH]c3)CC2)cc1 [Compound 14, 4-Phenoxy-1-(1H-pyrazol-4-yl)piperidine] | 97 | 0.22 | 0.00 | 60 |  |  | 53.00 |  |  |
| Cc1ccc(C2CCN(c3ccn[nH]3)CC2)cc1 [Compound 23, 1-(1H-Pyrazol-5-yl)-4-(p-tolyl)piperidine] | 61 | 0.11 | 0.00 | 70.8 | 166 | 40.1 | 67.40 |  |  |
| O=C1CCCN1c1ccc(C2CCN(c3ccn[nH]3)CC2)cc1 [Compound 101, 1-(4-(1-(1H-Pyrazol-5-yl)piperidin-4-yl)phenyl)pyrrolidin-2-one] |  |  | 48.70 | 80 | 158 |  | 79.00 | 33.8 | 46.7 |
| COc1cncc(C2CCN(c3ccn[nH]3)CC2)c1 [Compound 60, 3-(1-(1H-Pyrazol-5-yl)piperidin-4-yl)-5-methoxypyridine] | 100 |  | 0.00 | 38.4 |  |  | 3.70 |  |  |
| CC(Nc1ccc(C2CCN(c3cn[nH]c3)CC2)cc1)C(F)(F)F (centres unmarked) [Compound 104, 4-(1-(1H-Pyrazol-4-yl)piperidin-4-yl)-N-(1,1,1-trifluoropropan-2-yl)aniline] |  |  | 36.00 | 78 | 31 |  | 86.1 | 50.4 | 48.9 |
| Cc1ccc(CC2CCN(c3cn[nH]c3)CC2)cc1 [Compound 116, 4-(4-Methylbenzyl)-1-(1H-pyrazol-4-yl)piperidine] |  |  | 59.60 | 89.3 | 71 |  | 86.40 | 77.4 | 70.3 |

Reference: patent US12479816B2, “20-HETE formation inhibitors” (UNIVERSITY OF PITTSBURGH—OF THE COMMONWEALTH SYSTEM OF …, priority 2019, dated 2025)
